Measured values from ChEMBL document CHEMBL1201862, “PubChem BioAssay data set” (2004).
“And” between values parts separate entries of the source, which are not always exact repeats. Identical values can stand only once.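 Cultured in 96-well plates, cells were exposed to test compound for 48 hours across five concentrations. GI50: concentration for 50% inhibition of growth.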 The source made the active and inactive calls. Cut-off read from the data, not from the text of the source: active = GI50 up to about 1.1 µM and inactive = higher.

Experiments:
Experiment in all cases: NCI anticancer screen, dose series, 48 h
NCI-H226 = test system: NCI-H226
EKVX = test system: EKVX
SK-MEL-2 = test system: SK-MEL-2
U-251 = test system: U-251
SK-MEL-28 = test system: SK-MEL-28
MOLT-4 = test system: MOLT-4
TK-10 = test system: TK-10
UACC-257 = test system: UACC-257
MCF7 = test system: MCF7
HT-29 = test system: HT-29
SNB-75 = test system: SNB-75
A498 = test system: A498
SK-MEL-5 = test system: SK-MEL-5
PC-3 = test system: PC-3
Hs-578T = test system: Hs-578T
NCI-H522 = test system: NCI-H522
HCT-116 = test system: HCT-116
SW-620 = test system: SW-620
KM12 = test system: KM12
CCRF-CEM = test system: CCRF-CEM
MDA-MB-231 = test system: MDA-MB-231
RXF 393 = test system: RXF 393
T47D = test system: T47D
SF-268 = test system: SF-268
NCI-H23 = test system: NCI-H23
MDA-MB-435 = test system: MDA-MB-435
A549 = test system: A549
OVCAR-8 = test system: OVCAR-8
NCI/ADR-RES = test system: NCI/ADR-RES
HOP-92 = test system: HOP-92
BT-549 = test system: BT-549
MDA-N = test system: MDA-N
OVCAR-5 = test system: OVCAR-5
SNB-19 = test system: SNB-19
SF-539 = test system: SF-539
RPMI-8226 = test system: RPMI-8226
DU-145 = test system: DU-145
HL-60 = test system: HL-60
SN12C = test system: SN12C
NCI-H460 = test system: NCI-H460
HOP-62 = test system: HOP-62
LOX IMVI = test system: LOX IMVI
OVCAR-3 = test system: OVCAR-3
SK-OV-3 = test system: SK-OV-3
IGROV-1 = test system: IGROV-1
CAKI-1 = test system: CAKI-1
M14 = test system: M14
786-0 = test system: 786-0
Malme-3M = test system: Malme-3M
UO-31 = test system: UO-31
HCT-15 = test system: HCT-15
SF-295 = test system: SF-295
K562 = test system: K562
ACHN = test system: ACHN
HCC 2998 = test system: HCC 2998
COLO 205 = test system: COLO 205
OVCAR-4 = test system: OVCAR-4
UACC-62 = test system: UACC-62

## O=C1N/C(=N/N=C\C(O)C(O)C(O)CO)N/C1=C/c1ccc(Cl)cc1 (stereo not drawn)
NCI-H226
  GI50: 21 µM (inactive) and 22.2 µM (inactive)
EKVX
  GI50: 34.8 µM (inactive) and 26.7 µM (inactive)
SK-MEL-2
  GI50: 30.5 µM (inactive) and 40.1 µM (inactive)
U-251
  GI50: 33 µM (inactive) and 34.1 µM (inactive)
SK-MEL-28
  GI50: > 100 µM (inactive) and 64.6 µM (inactive)
MOLT-4
  GI50: 18.5 µM (inactive) and 16.3 µM (inactive)
TK-10
  GI50: > 100 µM (inactive) and 89.7 µM (inactive)
UACC-257
  GI50: > 100 µM (inactive)
MCF7
  GI50: 29.2 µM (inactive)
HT-29
  GI50: 44.5 µM (inactive) and 31.8 µM (inactive)
SNB-75
  GI50: 41.5 µM (inactive) and 32.9 µM (inactive)
A498
  GI50: 49.7 µM (inactive) and 39.8 µM (inactive)
SK-MEL-5
  GI50: 32 µM (inactive) and 46.6 µM (inactive)
PC-3
  GI50: 42.8 µM (inactive) and 37.5 µM (inactive)
Hs-578T
  GI50: 40.1 µM (inactive) and 29 µM (inactive)
NCI-H522
  GI50: 22.5 µM (inactive) and 20.4 µM (inactive)
HCT-116
  GI50: 43.9 µM (inactive) and 46.2 µM (inactive)
SW-620
  GI50: 60.5 µM (inactive) and 52.1 µM (inactive)
KM12
  GI50: 29.9 µM (inactive) and 37.2 µM (inactive)
CCRF-CEM
  GI50: 25.8 µM (inactive) and 21.5 µM (inactive)
MDA-MB-231
  GI50: 58.5 µM (inactive) and 44.6 µM (inactive)
RXF 393
  GI50: 92 µM (inactive)
T47D
  GI50: 34.1 µM (inactive) and 21.9 µM (inactive)
SF-268
  GI50: 27 µM (inactive) and 30.3 µM (inactive)
NCI-H23
  GI50: 30.3 µM (inactive) and 42.8 µM (inactive)
MDA-MB-435
  GI50: 59.4 µM (inactive) and 43.8 µM (inactive)
A549
  GI50: 71.8 µM (inactive)
OVCAR-8
  GI50: 44.1 µM (inactive) and 27.7 µM (inactive)
NCI/ADR-RES
  GI50: 55.5 µM (inactive) and 44.5 µM (inactive)
HOP-92
  GI50: 17 µM (inactive) and 32.1 µM (inactive)
BT-549
  GI50: 30.7 µM (inactive) and 23.9 µM (inactive)
MDA-N
  GI50: 46.2 µM (inactive) and 38.5 µM (inactive)
OVCAR-5
  GI50: 81.1 µM (inactive)
SNB-19
  GI50: 27 µM (inactive) and 29 µM (inactive)
SF-539
  GI50: 41.5 µM (inactive)
RPMI-8226
  GI50: 33.2 µM (inactive) and 34.4 µM (inactive)
DU-145
  GI50: 44.8 µM (inactive) and 70.5 µM (inactive)
HL-60
  GI50: 35.7 µM (inactive)
SN12C
  GI50: 69 µM (inactive) and 80.5 µM (inactive)
NCI-H460
  GI50: 33.9 µM (inactive)
HOP-62
  GI50: 46.2 µM (inactive) and 40.3 µM (inactive)
LOX IMVI
  GI50: 40.6 µM (inactive) and 35.5 µM (inactive)
OVCAR-3
  GI50: 21.6 µM (inactive) and 17.2 µM (inactive)
SK-OV-3
  GI50: 63.5 µM (inactive)
IGROV-1
  GI50: 30.6 µM (inactive) and 32.9 µM (inactive)
CAKI-1
  GI50: 57 µM (inactive) and 47 µM (inactive)
M14
  GI50: 25.9 µM (inactive)
786-0
  GI50: 53.1 µM (inactive)
Malme-3M
  GI50: 20.9 µM (inactive) and 17 µM (inactive)
UO-31
  GI50: 28.8 µM (inactive) and 31.7 µM (inactive)
HCT-15
  GI50: 20.6 µM
SF-295
  GI50: 41.5 µM (inactive)
K562
  GI50: 27.3 µM (inactive) and 27.2 µM (inactive)
ACHN
  GI50: 18.1 µM (inactive) and 17.8 µM (inactive)
HCC 2998
  GI50: > 10 µM (inactive)
COLO 205
  GI50: 42.6 µM (inactive) and 30.1 µM (inactive)
OVCAR-4
  GI50: 20.7 µM (inactive)

## O=C(O)c1c(Br)c(Br)c(Br)c(Br)c1C1c2ccc(O)cc2Oc2cc(O)ccc21
NCI-H226
  GI50: > 100 µM (inactive)
EKVX
  GI50: > 100 µM (inactive)
SK-MEL-2
  GI50: > 100 µM (inactive)
U-251
  GI50: > 100 µM (inactive)
SK-MEL-28
  GI50: > 100 µM (inactive)
MOLT-4
  GI50: 3.67 µM (inactive)
TK-10
  GI50: > 100 µM (inactive)
UACC-257
  GI50: > 100 µM (inactive)
MCF7
  GI50: > 100 µM (inactive)
HT-29
  GI50: > 100 µM (inactive)
SNB-75
  GI50: > 100 µM (inactive)
A498
  GI50: > 100 µM (inactive)
SK-MEL-5
  GI50: > 100 µM (inactive)
PC-3
  GI50: > 100 µM (inactive)
Hs-578T
  GI50: > 100 µM (inactive)
UACC-62
  GI50: > 100 µM (inactive)
NCI-H522
  GI50: > 100 µM (inactive)
HCT-116
  GI50: > 100 µM (inactive)
SW-620
  GI50: > 100 µM (inactive)
KM12
  GI50: > 100 µM (inactive)
MDA-MB-231
  GI50: > 100 µM (inactive)
RXF 393
  GI50: > 100 µM (inactive)
T47D
  GI50: > 100 µM (inactive)
SF-268
  GI50: > 100 µM (inactive)
MDA-MB-435
  GI50: > 100 µM (inactive)
A549
  GI50: > 100 µM (inactive)
OVCAR-8
  GI50: > 100 µM (inactive)
NCI/ADR-RES
  GI50: > 100 µM (inactive)
HOP-92
  GI50: > 100 µM (inactive)
BT-549
  GI50: > 100 µM (inactive)
MDA-N
  GI50: > 100 µM (inactive)
OVCAR-5
  GI50: > 100 µM (inactive)
SNB-19
  GI50: > 100 µM (inactive)
SF-539
  GI50: > 100 µM (inactive)
RPMI-8226
  GI50: > 100 µM (inactive)
DU-145
  GI50: > 100 µM (inactive)
HL-60
  GI50: 0.232 µM (active)
SN12C
  GI50: > 100 µM (inactive)
NCI-H460
  GI50: > 100 µM (inactive)
HOP-62
  GI50: > 100 µM (inactive)
LOX IMVI
  GI50: > 100 µM (inactive)
OVCAR-3
  GI50: > 100 µM (inactive)
SK-OV-3
  GI50: > 100 µM (inactive)
IGROV-1
  GI50: > 100 µM (inactive)
CAKI-1
  GI50: > 100 µM (inactive)
M14
  GI50: > 100 µM (inactive)
786-0
  GI50: > 100 µM (inactive)
Malme-3M
  GI50: > 100 µM (inactive)
UO-31
  GI50: 33 µM (inactive)
HCT-15
  GI50: > 100 µM
SF-295
  GI50: > 100 µM (inactive)
K562
  GI50: > 100 µM (inactive)
ACHN
  GI50: > 100 µM (inactive)
HCC 2998
  GI50: 68.1 µM (inactive)
COLO 205
  GI50: > 100 µM (inactive)
OVCAR-4
  GI50: > 100 µM (inactive)
